In experiment [1] the target is T1, Porcine pancreas α-amylase type VI (Sus scrofa, UniProt P00690).
T1 construct: purchased Sigma-Aldrich
T1 sequence (P00690 16-511): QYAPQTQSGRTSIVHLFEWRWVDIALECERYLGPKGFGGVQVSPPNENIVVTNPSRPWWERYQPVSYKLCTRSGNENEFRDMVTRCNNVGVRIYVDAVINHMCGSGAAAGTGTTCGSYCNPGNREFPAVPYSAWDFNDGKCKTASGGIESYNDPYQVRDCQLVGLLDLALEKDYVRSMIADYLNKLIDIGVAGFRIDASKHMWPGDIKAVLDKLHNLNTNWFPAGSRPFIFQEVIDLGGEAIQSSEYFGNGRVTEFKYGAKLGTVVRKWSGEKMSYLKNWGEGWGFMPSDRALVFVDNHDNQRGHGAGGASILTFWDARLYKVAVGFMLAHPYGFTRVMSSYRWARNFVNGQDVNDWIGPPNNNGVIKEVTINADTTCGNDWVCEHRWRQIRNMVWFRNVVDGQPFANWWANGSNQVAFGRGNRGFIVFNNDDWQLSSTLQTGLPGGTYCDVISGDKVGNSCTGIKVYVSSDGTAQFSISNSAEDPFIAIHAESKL
The experiment is described as follows: biochemical. The procedure: (§1) Soluble starch, sodium dihydrogenphosphate (NaH2PO4), sodium potassium tartrate and sodium chloride were purchased from Merck. Analytical grade solvents for extraction and HPLC grade solvents for chromatography were from Scharlau (Barcelona, Spain). HPLC grade water was obtained by an EASY-pure II (Barnstead, Dubuque IA, USA) water purification system. Deuterated solvents were purchased from Armar Chemicals (Döttingen, Switzerland).
α-Amylase inhibition activity was assessed by a previously reported procedure with some modifications ([17]). […] Individual blanks were prepared to correct for the blank ground absorbance, where the enzyme was replaced with buffer as follows:
Corrected absorbance of test sample = Absorbance of sample –absorbance of blank
From the net absorbance obtained, the % (w/v) of maltose generated was calculated from the equation obtained from the maltose standard calibration curve (0–0.1%, w/v, maltose).
Control incubations, representing 100% enzyme activity, were conducted in the same manner replacing the plant extract with DMSO. The percentage of α-amylase inhibition was calculated by the following equations:
% reaction=mean of maltose in sample/mean of maltose in control×100
% α-amylase inhibition activity= 100 - % reaction
(§2) Statistical analyses were done using GraphPad Prism version 5.00 for Windows. Differences were evaluated by one-way analysis of variance (ANOVA) test completed by Tukey’s multicomparison test. Statistical signiﬁcance was declared at a p<0.05. All assays were performed at least in triplicate and the results were expressed as mean ± standard deviation (SD). IC50 values were determined by plotting a percent inhibition versus concentration curve for all assays.

In experiment [2] the target is T2, α-glucosidase type I from Baker's Yeast (Saccharomyces cerevisiae, UniProt P53341).
T2 construct: purchased Sigma-Aldrich
T2 sequence (P53341 whole entry): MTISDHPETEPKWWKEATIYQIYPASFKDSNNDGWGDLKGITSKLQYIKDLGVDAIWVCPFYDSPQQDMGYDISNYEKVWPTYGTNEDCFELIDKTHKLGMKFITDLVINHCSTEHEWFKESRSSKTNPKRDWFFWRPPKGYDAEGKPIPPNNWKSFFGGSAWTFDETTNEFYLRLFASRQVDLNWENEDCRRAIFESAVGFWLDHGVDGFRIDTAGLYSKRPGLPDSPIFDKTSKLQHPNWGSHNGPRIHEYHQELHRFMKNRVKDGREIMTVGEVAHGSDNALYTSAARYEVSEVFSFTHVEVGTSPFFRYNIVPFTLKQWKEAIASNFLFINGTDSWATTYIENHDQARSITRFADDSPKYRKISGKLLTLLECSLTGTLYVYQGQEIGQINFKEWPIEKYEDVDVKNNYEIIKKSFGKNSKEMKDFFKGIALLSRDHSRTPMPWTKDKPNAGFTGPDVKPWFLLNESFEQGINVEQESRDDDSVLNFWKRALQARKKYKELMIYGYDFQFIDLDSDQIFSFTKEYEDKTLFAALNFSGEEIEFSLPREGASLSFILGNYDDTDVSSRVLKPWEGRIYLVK
The experiment is described as follows: biochemical. The procedure:
as §1
The α-glucosidase inhibition was measured according to an earlier reported bioassay method ([18]). […] The mixed solution was incubated in 96-well plates at 37 °C for 15 min. After preincubation, the enzymatic reaction was initiated by adding 20 µL of 5 mM p-nitrophenyl-α-D-glucopyranoside solution in 0.1 M phosphate buffer (pH 6.9), and the reaction mixture was incubated for another 15 min at 37 °C. […] The reaction system without plant extracts was used as control and the system without α-glucosidase was used as blank for correcting the background absorbance. The inhibitory rate of sample on α-glucosidase was calculated by the following formula:
% Inhibition=control absorbance-sample absorbance/control absorbance×100
as §2

The mark [3] stands for this setting: isolated compounds, pH 6.8, 37 °C, 30 min, mean ± SD, read-out: α-amylase (IC50 µM).

Like-named read-outs stand apart in the source and are kept apart here.

Regarding `O=c1cc(-c2ccc(O)c(O)c2)oc2cc(O[C@@H]3O[C@H](CO)[C@@H](O)[C@H](O)[C@H]3O)cc(O)c12` [Compound 1, luteolin 7-O-glucoside], the IC50 in experiment [1] (setting [3]) amounted to 81.7 ± 2.3 µM; in experiment [2] it was 18.3 ± 1.7 µM.

For `O=C(O)[C@H]1O[C@@H](Oc2cc(O)c3c(=O)cc(-c4ccc(O)c(O)c4)oc3c2)[C@H](O)[C@@H](O)[C@@H]1O` [Compound 2, luteolin 7-O-glucuronide], the results for the IC50 in experiment [1] (setting [3]) and in experiment [2] were 61.5 ± 1.4 µM and 14.7 ± 2.1 µM, respectively.

`COc1ccc(-c2cc(=O)c3c(O)cc(O[C@@H]4O[C@H](C(=O)O)[C@@H](O)[C@H](O)[C@H]4O)cc3o2)cc1O` [Compound 3, diosmetin 7-O-glucuronide]: the IC50 in experiment [1] (setting [3]) was 76.3 ± 0.6 µM; in experiment [2] it was 17.1 ± 1.9 µM.

Take `COc1ccc(-c2cc(=O)c3c(O)c(OC)c(OC)cc3o2)cc1` [Compound 4, salvigenin]: the IC50 in experiment [1] was greater than 100 µM; in experiment [2] (isolated compounds, pH 6.9, 37 °C, mean ± SD, read-out: α-glucosidase (IC50 µM)), greater than 50 µM.

A word on the IC50: it is the concentration that inhibits the measured activity by half.

These data come from article PMC4403079, “Flavonoids from Salvia chloroleuca with α-Amylsae and α-Glucosidase Inhibitory Effect” (Iranian Journal of Pharmaceutical Research : IJPR, 2015).
